For orientation: TGI means the concentration giving total growth inhibition. Low values mean more potent growth arrest, high ones less potent growth arrest. Usually GI50 stands for the concentration at which growth is held to half of that of the control.

The values below come from PubChem BioAssay (NCI).

Where “and” joins values, the source holds several entries; their conditions need not be identical. Identical values can stand only once.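 Test compounds were applied to cells in 96-well plates for 48 hours at 5 doses. GI50 is the concentration that inhibits growth by half. TGI marks complete inhibition of growth.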

Assay in all cases: DTP human tumour cell line panel, 48 h
Assay [1] has as its system SW-620 colon.
Assay [2] concerns A549 NSCLC.
Assay [3] deals with OVCAR-5 ovarian.
The subject of assay [4] is K-562 leukemia.
The test system of assay [5] is HCT-15 colon.
In assay [6] the test system is HL-60(TB) leukemia.
Assay [7] relates to SF-539 CNS.

Take `C[C@H]1CC[P+](Cc2ccccc2)(c2ccccc2)C1` (some centres not stated): the TGI in assay [1], in assay [2], in assay [3], in assay [4], in assay [5] and in assay [6] was more than 100 µM in each case. In addition, the total growth inhibition concentration (TGI) in assay [7] is more than 100 µM.

`COc1ccccc1NC(=O)C1=C(C)NC(C)=C(C(=O)Nc2ccccc2OC)C1c1ccccc1[N+](=O)[O-]`: the concentration for total growth inhibition (TGI) in assay [2] is more than 100 µM; in assay [3], 85.4 µM; in assay [4], 65 µM; in assay [5] it was 27.5 µM; in assay [6], 45.3 µM; in assay [7], 37 µM.

In the case of `Cc1ccc(NC(=O)CCCC(=O)CC(=O)c2ccc(Br)cc2)cc1`, the TGI in assay [1], in assay [2], in assay [3], in assay [4], in assay [5] and in assay [7] was more than 100 µM throughout.

In the case of `O=C(c1ccc(O)cc1O)C1C(c2ccc(O)cc2)OC(c2ccc(O)cc2)C1C(=O)c1ccc(O)cc1O` (configuration not stated), the TGI was more than 100 µM in assay [1]; more than 100 µM in assay [2]; 29.7 µM in assay [3]; 39.4 µM in assay [6]; 47.1 µM in assay [7].

For `Cc1ccc(NC(=O)CCc2nc(=S)[nH][nH]2)cc1`, the concentration for total growth inhibition (TGI) in assay [1], in assay [2], in assay [3], in assay [4], in assay [5] and in assay [6] was more than 100 µM each time. In assay [7], this molecule came in with a TGI of more than 100 µM.

Regarding `Nc1nncc2c1c(Br)cn2C1OC(CO)C(O)C1O` (configuration not stated), the TGI in assay [1], in assay [2], in assay [3], in assay [4], in assay [5] and in assay [6] was more than 100 µM in each case. In assay [7], this molecule came in with a TGI of more than 100 µM.

Consider `CC(=O)C1CCN(c2ccccc2)C1` (configuration not stated), for which the TGI in assay [1], in assay [2], in assay [3], in assay [4], in assay [6] and in assay [7] was more than 100 µM in each case.

Take `COc1cc(C2c3cc4c(cc3[C@@H](NCCN(C)C)C3COC(=O)[C@H]23)OCO4)cc(OC)c1O` (some centres not stated): the concentration for total growth inhibition (TGI) was 3.51 µM and 3.71 µM in assay [1]; 2.63 µM in assay [5]; 0.124 µM and 0.121 µM in assay [6]; 0.207 µM and 0.974 µM in assay [7]. Besides, the GI50 in assay [5] is 1.02 µM.

As for `O=C1c2ccccc2C(=O)c2cc3c(cc21)CS(=O)C3`, the concentration for total growth inhibition (TGI) in assay [1], in assay [2], in assay [3], in assay [4], in assay [6] and in assay [7] was more than 100 µM each time.

For `CC(C)(C)c1cc(CCC(=O)Nc2ccc(Cl)cc2)[nH]c(=S)n1`, the total growth inhibition concentration (TGI) in assay [1], in assay [2], in assay [3], in assay [4], in assay [5] and in assay [6] was more than 100 µM throughout. In assay [7], the total growth inhibition concentration (TGI) was more than 100 µM.

Take `CCCNC(=O)Nc1c([N+](=O)[O-])cc(C(F)(F)F)cc1[N+](=O)[O-]`: the TGI in assay [1] is more than 100 µM; in assay [2] it was more than 100 µM; in assay [3], more than 100 µM; in assay [4], more than 100 µM; in assay [5] it was more than 100 µM; in assay [6] it was 82.7 µM. The TGI in assay [7] was more than 100 µM.

As for `O=C(O/N=C1\CCCC\C1=C/c1ccccc1)c1ccc([N+](=O)[O-])cc1`, the TGI in assay [1], in assay [2], in assay [3], in assay [4], in assay [5] and in assay [6] was more than 100 µM throughout. The molecule also had a TGI in assay [7] of more than 100 µM.

Turning to `COC1C2C[C@@H](O)CCC2C(C(=O)OCCl)C[C@H]1O` (some centres not stated), the concentration for total growth inhibition (TGI) in assay [1], in assay [2], in assay [4], in assay [5], in assay [6] and in assay [7] was more than 100 µM throughout.

In the case of `O=C1C(c2ccccc2)=C(c2ccccc2)C(c2ccc(Cc3ccc(C4=C(c5ccccc5)C(=O)C(c5ccccc5)=C4c4ccccc4)cc3)cc2)=C1c1ccccc1`, the TGI in assay [1], in assay [2], in assay [3], in assay [4], in assay [5] and in assay [6] was more than 100 µM each time. Further, the TGI in assay [7] was more than 100 µM.

Turning to `O=S1(=O)N2CN3CN(C2)CN1C3`, the TGI is 57.8 µM and 113 µM in assay [1]; 935 µM in assay [2]; 362 µM in assay [3]; > 31.6 µM and 169 µM in assay [4]; 53.4 µM and 67.2 µM in assay [5]; 62.8 µM in assay [6].

As to `Nc1ccc2n[se]nc2c1`, the TGI in assay [1], in assay [2], in assay [3], in assay [4], in assay [5] and in assay [6] was more than 100 µM in each case. In assay [7], this molecule returned a TGI of more than 100 µM.

Consider `COC(=O)CCSC(=O)Nc1ccc(N=Nc2ccccc2)cc1`, for which the TGI in assay [1], in assay [2], in assay [3], in assay [4], in assay [5] and in assay [7] was more than 100 µM throughout.

`NC(=O)c1ccc2c(c1)-c1nc-2nc2[n-]c(nc3nc(nc4[n-]c(n1)c1ccc(C(N)=O)cc41)-c1ccc(C(N)=O)cc1-3)c1ccc(C(N)=O)cc21.[Co+2]`: the GI50 was 26.9 µM in assay [1]; more than 50 µM in assay [2]; more than 50 µM in assay [3]; 46.6 µM in assay [4]; more than 50 µM in assay [5]; 7.12 µM in assay [6]. Also, the GI50 in assay [7] was 12.7 µM. Moreover, the TGI in assay [1], in assay [2], in assay [3], in assay [4], in assay [5] and in assay [6] was more than 50 µM in each case. The TGI in assay [7] came to 33.5 µM.

As to `COC(=O)C(=O)Cc1nc2ccccc2s1`, the total growth inhibition concentration (TGI) in assay [1], in assay [2], in assay [3], in assay [4], in assay [5] and in assay [6] was more than 100 µM in each case. Moreover, in assay [7], the TGI is more than 100 µM.

Turning to `NC1NC=NC2C1N=CN2C1OC(CO)C2[O][Sn][O]C21` (configuration not stated), the GI50 in assay [1] is more than 100 µM; in assay [2], more than 100 µM; in assay [3], more than 100 µM; in assay [4], more than 100 µM; in assay [5], 0.384 µM; in assay [6], more than 100 µM. Further, the GI50 in assay [7] was more than 100 µM. The concentration for total growth inhibition (TGI) in assay [1], in assay [2], in assay [3], in assay [4], in assay [5] and in assay [6] was more than 100 µM in each case. The same molecule displayed a TGI in assay [7] of more than 100 µM.

As for `CCOC(=O)C(C)(NC(=O)c1ccc(NCc2ccc3nc(NC(=O)c4ccccc4)nc(NC(=O)c4ccccc4)c3c2)cc1)C(=O)OCC`, the TGI is more than 100 µM in assay [1]; 35.2 µM in assay [2]; more than 100 µM in assay [3]; more than 100 µM in assay [5]; more than 100 µM in assay [6]; 9.88 µM in assay [7].

With `COc1cc[c]([Sn]([c]2ccc(OC)cc2)([c]2ccc(OC)cc2)[c]2ccc(OC)cc2)cc1`, the GI50 was 18.9 µM in assay [1]; 25.9 µM in assay [2]; 33.3 µM in assay [3]; 16.2 µM in assay [4]; more than 100 µM in assay [5]; 16.8 µM in assay [7]. The TGI in assay [1] was 55.9 µM; in assay [2], more than 100 µM; in assay [3], more than 100 µM; in assay [4] it was 56.1 µM; in assay [5], more than 100 µM; in assay [7], 48.6 µM.

On to `CC(C)(CN1C(=O)C(Cl)=C(Cl)C1=O)CN1C(=O)C(Cl)=C(Cl)C1=O`, for which the concentration for total growth inhibition (TGI) in assay [1] was 15.3 µM; in assay [2] it was more than 72.7 µM; in assay [3], 42.7 µM; in assay [4], 7.1 µM; in assay [5], 48.8 µM; in assay [6] it was 2.84 µM. The TGI in assay [7] worked out at 38.8 µM.

On to `Cc1nc(N)nc(N)c1CCCCc1ccc(N)cc1`, for which the total growth inhibition concentration (TGI) was found to be 19.8 µM in assay [1]; 16.8 µM in assay [2]; 23 µM in assay [3]; 16.4 µM in assay [4]; 18.4 µM in assay [5]; 19.4 µM in assay [6]. In assay [7], this molecule came in with a total growth inhibition concentration (TGI) of 21.7 µM.

As for `CN(C)CCNC(=O)c1cccc2c1nc(-c1ccc(F)cc1)c1ccccc12`, the concentration for total growth inhibition (TGI) in assay [1] was determined as 14.8 µM; in assay [2], 13.8 µM; in assay [3], 16.7 µM; in assay [4], 11.7 µM; in assay [5], 13.9 µM; in assay [6], 10.9 µM. The molecule further showed a concentration for total growth inhibition (TGI) in assay [7] of 13.8 µM.
